Reference: US8859546B2, “Picolinamide inhibitors of kinases” (AbbVie Inc., priority 2011, dated 2014)

target: T1, ALK (Homo sapiens, UniProt Q9UM73); assay: ALK kinase assay (HTRF), apparent Ki; type: biochemical; conditions: apparent Ki from IC50 by Cheng-Prusoff; ALK (Millipore), 50 μM ATP; read-out: HTRF_ALK Human-Ki
T1 construct: purchased Millipore
Method: The following procedure is used to determine ALK Activity.
ALK kinase assays were conducted with the indicated final concentrations unless otherwise specified. In 384 well black plates (Axygen), 8 μl of compound (2% DMSO) was incubated with 8 μl Lck-peptide substrate (0.5 μM, biotin-Ahx-GAEEEIYAAFFA-COOH) and 8 μl of a mixture of ALK (3 nM, Millipore) and ATP (50 μM) in reaction buffer (50 mM Hepes, pH 7.4; 10 mM MgCl2; 2 mM MnCl2; 0.1 mM sodium orthovanadate; 0.01% BSA and 1 mM DTT (added fresh before assay) for 1 h at room temperature. Reactions were then quenched by the addition of 30 μl quench solution (streptavidin-allophycocyanin and Europium-cryptate PT66 monoclonal antibody in 40 mM Hepes, pH 7.4; 480 mM KF; 66 mM EDTA; 0.01% Tween-20; and 0.1% BSA) at room temperature. Plates were read 1 h after quenching on an Envision Multilaber Reader and IC50 values were calculated using a sigmoidal fit of the concentration/inhibition response curves. These values were converted to apparent Ki values using the Cheng-Prusoff relationship.
Alternatively, 4 nM ALK (Millipore) and 50 μM ATP were pre-incubated for 30 min at room temperate in 384 well plates (Corning 3676) in 2.5× reaction buffer (125 nM SEB from Cisbio Bioassays, 12.5 mM MgCl2, 5 mM MnCl2, and 2.5 mM DTT). Reactions were initiated by the addition of 4 μl ALK-ATP mixture to 2 μl compounds (2% DMSO) and 4 μl TK-substrate biotin (Cisbio Bioassays). After incubation for 1 h at room temperature, reactions were quenched in 10 μl stop buffer (Cisbio detection buffer containing Streptavididn-XL665 and Eu-Cryptate PT66 monoclonal antibody). Plates were read 1 h after quenching on an Envision Multilaber Reader and IC50 values were calculated using a sigmoidal fit of the concentration/inhibition response curves. These values were converted to apparent Ki values using the Cheng-Prusoff relationship. Results are shown in Table 1 A correlates to an Ki=<100 nM, B correlates to an Ki between 100 nM and 1 μM, C correlates to an Ki=>1 μM.

T1 sequence (Q9UM73 19-1620): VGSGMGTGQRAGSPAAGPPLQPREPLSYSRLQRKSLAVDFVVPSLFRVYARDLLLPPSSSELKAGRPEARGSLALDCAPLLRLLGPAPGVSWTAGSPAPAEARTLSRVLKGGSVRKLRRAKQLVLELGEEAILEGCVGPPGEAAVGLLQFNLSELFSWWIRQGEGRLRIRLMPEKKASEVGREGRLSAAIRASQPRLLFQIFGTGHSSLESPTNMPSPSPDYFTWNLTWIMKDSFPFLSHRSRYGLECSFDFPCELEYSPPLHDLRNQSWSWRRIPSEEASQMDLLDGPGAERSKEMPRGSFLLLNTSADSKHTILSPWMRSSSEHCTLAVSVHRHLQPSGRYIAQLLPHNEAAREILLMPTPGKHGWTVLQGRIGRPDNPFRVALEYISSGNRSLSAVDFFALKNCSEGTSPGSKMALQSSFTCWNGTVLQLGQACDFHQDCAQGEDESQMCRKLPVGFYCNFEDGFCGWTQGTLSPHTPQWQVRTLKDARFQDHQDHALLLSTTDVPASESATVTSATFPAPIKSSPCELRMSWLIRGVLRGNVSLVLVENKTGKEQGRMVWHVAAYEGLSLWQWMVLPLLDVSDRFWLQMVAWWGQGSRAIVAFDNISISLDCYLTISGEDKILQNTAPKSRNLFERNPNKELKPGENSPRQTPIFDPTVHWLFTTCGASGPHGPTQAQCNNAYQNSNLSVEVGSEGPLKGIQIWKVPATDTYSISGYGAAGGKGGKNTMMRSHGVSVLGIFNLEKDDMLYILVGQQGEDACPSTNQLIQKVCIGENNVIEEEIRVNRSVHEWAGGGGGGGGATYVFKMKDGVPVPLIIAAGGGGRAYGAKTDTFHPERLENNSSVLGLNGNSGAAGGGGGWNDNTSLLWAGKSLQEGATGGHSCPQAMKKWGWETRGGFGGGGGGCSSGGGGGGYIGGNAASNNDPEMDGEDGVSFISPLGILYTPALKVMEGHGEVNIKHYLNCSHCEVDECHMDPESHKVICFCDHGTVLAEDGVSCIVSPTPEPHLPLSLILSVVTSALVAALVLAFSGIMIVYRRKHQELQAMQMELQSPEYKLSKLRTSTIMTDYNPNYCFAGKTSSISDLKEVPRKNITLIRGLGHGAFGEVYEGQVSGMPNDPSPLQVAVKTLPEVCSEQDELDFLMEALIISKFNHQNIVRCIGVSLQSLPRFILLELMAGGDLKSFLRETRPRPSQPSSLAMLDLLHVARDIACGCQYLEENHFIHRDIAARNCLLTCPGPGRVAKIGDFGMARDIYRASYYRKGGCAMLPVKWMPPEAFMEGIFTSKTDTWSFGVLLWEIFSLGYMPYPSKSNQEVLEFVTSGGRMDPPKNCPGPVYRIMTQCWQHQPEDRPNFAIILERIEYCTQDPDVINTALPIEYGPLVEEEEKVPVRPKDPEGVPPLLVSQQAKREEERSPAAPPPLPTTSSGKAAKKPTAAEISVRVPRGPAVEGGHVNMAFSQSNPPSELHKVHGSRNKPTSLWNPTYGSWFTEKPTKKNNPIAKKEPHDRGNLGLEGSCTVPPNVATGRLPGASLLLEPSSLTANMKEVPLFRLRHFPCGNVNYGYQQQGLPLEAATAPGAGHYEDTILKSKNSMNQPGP

| SMILES | Ki |
| --- | --- |
| COc1cc(N2CCNCC2)ccc1Nc1cc(C(C)c2c(Cl)cccc2Cl)cnc1C(N)=O (stereo not shown) [Example 2, 5-[1-(2,6-dichlorophenyl)ethyl]-3-{[2-methoxy-4-(piperazin-1-yl)phenyl]amino}pyridine-2-carboxamide] | < 100 nM |
| CC(c1ccccc1)c1cnc(C(N)=O)c(Nc2ccc(N3CCN(C)CC3)cc2)c1 (stereo not shown) [Example 11, 3-{[4-(4-methylpiperazin-1-yl)phenyl]amino}-5-(1-phenylethyl)pyridine-2-carboxamide] | 100 to 1000 nM |
| CN1CCN(c2ccc(Nc3cc(Cc4ccc(F)cc4F)cnc3C(N)=O)cc2)CC1 [Example 20, 5-(2,4-difluorobenzyl)-3-{[4-(4-methylpiperazin-1-yl)phenyl]amino}pyridine-2-carboxamide] | 100 to 1000 nM |
| Cc1cc(Nc2cc(Cc3ccccc3)cnc2C(N)=O)ccc1N1CCN(C)CC1 [Example 8, 5-benzyl-3-{[3-methyl-4-(4-methylpiperazin-1-yl)phenyl]amino}pyridine-2-carboxamide] | > 1000 nM |
| CN1CCN(c2ccc(Nc3cc(Cc4ccccc4)cnc3C(N)=O)cc2Cl)CC1 [Example 7, 5-benzyl-3-{[3-chloro-4-(4-methylpiperazin-1-yl)phenyl]amino}pyridine-2-carboxamide] | 100 to 1000 nM |
| COc1cc(N2CCN(C)CC2)ccc1Nc1cc(C(C)c2cccc(F)c2)cnc1C(N)=O (stereo not shown) [Example 37, 5-[1-(3-fluorophenyl)ethyl]-3-{[2-methoxy-4-(4-methylpiperazin-1-yl)phenyl]amino}pyridine-2-carboxamide] | 100 to 1000 nM |
| CN1CCN(c2ccc(Nc3cc(Cc4ccc(Cl)cc4)cnc3C(N)=O)cc2)CC1 [Example 25, 5-(4-chlorobenzyl)-3-{[4-(4-methylpiperazin-1-yl)phenyl]amino}pyridine-2-carboxamide] | > 1000 nM |
| CN1CCN(c2ccc(Nc3cc(Cc4c(F)cccc4Cl)cnc3C(N)=O)cc2)CC1 [Example 30, 5-(2-chloro-6-fluorobenzyl)-3-{[4-(4-methylpiperazin-1-yl)phenyl]amino}pyridine-2-carboxamide] | < 100 nM |
| COc1cc(N2CCNCC2)ccc1Nc1cc(Cc2c(Cl)cccc2Cl)cnc1C(N)=O [Example 1, 5-(2,6-dichlorobenzyl)-3-{[2-methoxy-4-(piperazin-1-yl)phenyl]amino}pyridine-2-carboxamide] | < 100 nM |
| COc1cccc(Cc2cnc(C(N)=O)c(Nc3ccc(N4CCN(C)CC4)cc3)c2)c1 [Example 22, 5-(3-methoxybenzyl)-3-{[4-(4-methylpiperazin-1-yl)phenyl]amino}pyridine-2-carboxamide] | 100 to 1000 nM |
| CN1CCN(c2ccc(Nc3cc(Cc4c(F)cccc4F)cnc3C(N)=O)cc2)CC1 [Example 15, 5-(2,6-difluorobenzyl)-3-{[4-(4-methylpiperazin-1-yl)phenyl]amino}pyridine-2-carboxamide] | < 100 nM |
| CN1CCN(c2cccc(Nc3cc(Cc4ccccc4)cnc3C(N)=O)c2)CC1 [Example 4, 5-benzyl-3-{[3-(4-methylpiperazin-1-yl)phenyl]amino}pyridine-2-carboxamide] | 100 to 1000 nM |
| CN1CCN(c2ccc(Nc3cc(Cc4ccccc4Cl)cnc3C(N)=O)cc2)CC1 [Example 23, 5-(2-chlorobenzyl)-3-{[4-(4-methylpiperazin-1-yl)phenyl]amino}pyridine-2-carboxamide] | 100 to 1000 nM |
| CC(c1cccc(F)c1)c1cnc(C(N)=O)c(Nc2ccc(N3CCN(C)CC3)cc2)c1 (stereo not shown) [Example 34, 5-[1-(3-fluorophenyl)ethyl]-3-{[4-(4-methylpiperazin-1-yl)phenyl]amino}pyridine-2-carboxamide] | 100 to 1000 nM |
| CN1CCN(c2ccc(Nc3cc(Cc4ccccc4-c4ccccc4)cnc3C(N)=O)cc2)CC1 [Example 32, 5-(biphenyl-2-ylmethyl)-3-{[4-(4-methylpiperazin-1-yl)phenyl]amino}pyridine-2-carboxamide] | 100 to 1000 nM |
| CN1CCN(c2ccc(Nc3cc(-c4ccccc4)cnc3C(N)=O)cc2)CC1 [Example 6, 3-{[4-(4-methylpiperazin-1-yl)phenyl]amino}-5-phenylpyridine-2-carboxamide] | 100 to 1000 nM |
| CN1CCN(c2ccc(Nc3cc(Cc4cccc(C(F)(F)F)c4)cnc3C(N)=O)cc2)CC1 [Example 33, 3-{[4-(4-methylpiperazin-1-yl)phenyl]amino}-5-[3-(trifluoromethyl)benzyl]pyridine-2-carboxamide] | 100 to 1000 nM |
| Cc1cccc(Cc2cnc(C(N)=O)c(Nc3ccc(N4CCN(C)CC4)cc3)c2)c1 [Example 26, 5-(3-methylbenzyl)-3-{[4-(4-methylpiperazin-1-yl)phenyl]amino}pyridine-2-carboxamide] | 100 to 1000 nM |

The next lines start with the values.

| Ki | SMILES |
| --- | --- |
| 100 to 1000 nM | Cc1oncc1S(=O)(=O)Nc1cccc(-c2cnc(C(N)=O)c(Nc3ccc(N4CCN(C)CC4)cc3)c2)c1 [Example 67, 5-(3-{[(5-methyl-1,2-oxazol-4-yl)sulfonyl]amino}phenyl)-3-{[4-(4-methylpiperazin-1-yl)phenyl]amino}pyridine-2-carboxamide] |
| 100 to 1000 nM | CN1CCN(c2ccc(Nc3cc(-c4ccccc4NS(C)(=O)=O)cnc3C(N)=O)cc2)CC1 [Example 55, 3-{[4-(4-methylpiperazin-1-yl)phenyl]amino}-5-{2-[(methylsulfonyl)amino]phenyl}pyridine-2-carboxamide] |
| > 1000 nM | CN1CCN(c2ccc(Nc3cc(-c4cccc(C#N)c4)cnc3C(N)=O)cc2)CC1 [Example 59, 5-(3-cyanophenyl)-3-{[4-(4-methylpiperazin-1-yl)phenyl]amino}pyridine-2-carboxamide] |
| 100 to 1000 nM | CN1CCN(c2ccc(Nc3cc(-c4cccc(C(=O)N(C)C)c4)cnc3C(N)=O)cc2)CC1 [Example 62, 5-[3-(dimethylcarbamoyl)phenyl]-3-{[4-(4-methylpiperazin-1-yl)phenyl]amino}pyridine-2-carboxamide] |
| 100 to 1000 nM | COc1cc(N2CCN(C)CC2)ccc1Nc1cc(-c2cccc(NS(C)(=O)=O)c2)cnc1C(N)=O [Example 57, 3-{[2-methoxy-4-(4-methylpiperazin-1-yl)phenyl]amino}-5-{3-[(methylsulfonyl)amino]phenyl}pyridine-2-carboxamide] |
| 100 to 1000 nM | CN1CCN(c2ccc(Nc3cc(-c4cccc(NS(=O)(=O)C5CC5)c4)cnc3C(N)=O)cc2)CC1 [Example 66, 5-{3-[(cyclopropylsulfonyl)amino]phenyl}-3-{[4-(4-methylpiperazin-1-yl)phenyl]amino}pyridine-2-carboxamide] |
| > 1000 nM | CN1CCN(c2ccc(Nc3cc(-c4cccc(F)c4)cnc3C(N)=O)cc2)CC1 [Example 51, 5-(3-fluorophenyl)-3-{[4-(4-methylpiperazin-1-yl)phenyl]amino}pyridine-2-carboxamide] |
| < 100 nM | COc1cc(N2CCNCC2)ccc1Nc1cc(Cc2c(F)cccc2Cl)cnc1C(N)=O [Example 42, 5-(2-chloro-6-fluorobenzyl)-3-{[2-methoxy-4-(piperazin-1-yl)phenyl]amino}pyridine-2-carboxamide] |
| < 100 nM | CCN(CC)CCN1CCN(c2ccc(Nc3cc(Cc4c(F)cccc4Cl)cnc3C(N)=O)c(OC)c2)CC1 [Example 44, 5-(2-chloro-6-fluorobenzyl)-3-[(4-{4-[2-(diethylamino)ethyl]piperazin-1-yl}-2-methoxyphenyl)amino]pyridine-2-carboxamide] |
| 100 to 1000 nM | CN1CCN(c2ccc(Nc3cc(Nc4ccccc4)cnc3C(N)=O)cc2)CC1 [Example 70, 5-anilino-3-{[4-(4-methylpiperazin-1-yl)phenyl]amino}pyridine-2-carboxamide] |
